This note sets out measurements from US8362000B2, “Azetidinyl diamides as monoacylglycerol lipase inhibitors” (Janssen Pharmaceutica NV, priority 2009, dated 2013).

Substitutions are numbered along the chain they refer to. pIC50, pKd: −log10 of the molar value. Read-outs that look alike come from different tables or passages of the source.

Experiment [1] deals with T1, purified wild type MGL (wt-MGLL 6H-11-313) (Homo sapiens, UniProt Q99685).
T1 sequence (Q99685 1-303): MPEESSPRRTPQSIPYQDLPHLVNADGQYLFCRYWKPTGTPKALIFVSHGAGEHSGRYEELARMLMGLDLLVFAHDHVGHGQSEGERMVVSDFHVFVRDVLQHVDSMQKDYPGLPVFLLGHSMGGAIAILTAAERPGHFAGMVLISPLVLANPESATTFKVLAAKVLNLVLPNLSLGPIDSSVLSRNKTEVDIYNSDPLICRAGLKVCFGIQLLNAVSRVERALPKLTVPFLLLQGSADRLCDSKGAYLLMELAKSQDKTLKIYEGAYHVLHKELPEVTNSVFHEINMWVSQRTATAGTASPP

In another experiment the target is T2, mutant MGL (Homo sapiens, UniProt Q99685, L169S/L176S).
T2 sequence (Q99685 1-303 L169S/L176S): T1 sequence (Q99685 1-303) with L169S, L176S
Put plainly: MGL ThermoFluor assay - mutant. The format is binding. (In DSF a fluorescence change marks the thermal transition of the protein.)

The mark [2] stands for this setting: ThermoFluor, compound concentration measured by qNMR, read-out: MGL mutant ThermoFluor qKd (using qNMR conc.).
Setting [3] is: ThermoFluor concentration-response, read-out: MGL mutant ThermoFluor Kd.
[4] abbreviates: ThermoFluor thermal stability binding assay, read-out: MGL mutant ThermoFluor Kd.
Setting [5] is: compound concentration measured by qNMR, read-out: MGL mutant ThermoFluor qKd (using qNMR conc.).

With `O=C(c1cc2nc(C(F)(F)F)ccc2[nH]1)N1CC(N2CCN(C(=O)c3nccs3)CC2)C1` [Cpd 863], the negative-log IC50 (pIC50) in experiment [1] was 4.99. Moreover, the pKd at mutant MGL (setting [2]) is 5.36.

In turn, `COc1cccc2c(C)c(C(=O)N3CCN(C4CN(C(=O)c5cscn5)C4)CC3)[nH]c12` [Cpd 857] showed a pIC50 in experiment [1] of 5.06. Besides, the pKd at mutant MGL (setting [3]) was 5.48.

As to `O=C(c1ccc(-c2cccc(C(F)(F)F)c2)cc1)N1CCN(C2CN(C(=O)c3cc[nH]c3)C2)CC1` [Cpd 1243, 1-[1-(1H-Pyrrol-3-ylcarbonyl)azetidin-3-yl]-4-{[3′-(trifluoromethyl)biphenyl-4-yl]carbonyl}piperazine], in experiment [1], the pIC50 was 6.33. Also, on mutant MGL (setting [3]), the pKd was 7.48.

In turn, `O=C(c1nccs1)N1CCN(C2CN(C(=O)c3ccccc3NCc3ccccc3)C2)CC1` [Cpd 775] gave a pIC50 in experiment [1] of 6.06. For the same compound, the pKd at mutant MGL (setting [4]) is 6.48.

`Cc1cc(C(=O)N2CC(N3CCN(C(=O)c4cscn4)CC3)C2)cc2ccn(-c3ccc(F)cc3)c12` [Cpd 1076] gave a pIC50 in experiment [1] of 8.10. Moreover, the pKd on mutant MGL (setting [5]) is 7.70.

Take `O=C(c1ccccc1)N1CCN(C2CN(C(=O)c3cc4ccn(-c5ccc(F)cc5)c4cc3F)C2)CC1` [Cpd 631]: the pIC50 in experiment [1] is 7.40. For the same compound, at mutant MGL (setting [5]), the pKd was 7.28.

The compound `O=C(c1ccc(-n2ccc(C(F)(F)F)n2)cc1)N1CC(N2CCN(C(=O)c3cscn3)CC2)C1` [Cpd 1302] had a pIC50 in experiment [1] of 5.31. The pKd on mutant MGL (setting [4]) is 5.60.

As to `O=C(c1nccs1)N1CCN(C2CN(C(=O)c3cccc4oc(-c5ccc(Cl)cc5)nc34)C2)CC1` [Cpd 1220], the pIC50 in experiment [1] was 6.59. Further, the pKd at mutant MGL (setting [4]) was 7.82.

`O=C(c1nccs1)N1CC(N2CCN(C(=O)c3[nH]c4nc(C(F)(F)F)ccc4c3Br)CC2)C1` [Cpd 746] had a pIC50 in experiment [1] of 6.43. At mutant MGL (setting [2]), the pKd is 6.58.

In the case of `O=C(c1cc2ccc(C(F)(F)F)nc2[nH]1)N1CC(N2CCN(C(=O)c3nccs3)CC2)C1` [Cpd 799], in experiment [1], the negative-log IC50 (pIC50) is 5.78. Moreover, the pKd at mutant MGL (setting [3]) is 6.18.

The compound `Cc1c(C(=O)N2CC(N3CCN(C(=O)c4nccs4)CC3)C2)sc2nc3n(c(=O)c12)CCC3` [Cpd 824] showed a pIC50 in experiment [1] of 5.51. Moreover, on mutant MGL (setting [2]), the pKd is 7.13.

In the case of `Cc1ccc2c(C(F)(F)F)c(C(=O)N3CC(N4CCN(C(=O)c5cscn5)CC4)C3)sc2c1` [Cpd 712, 1-(1-{[6-Methyl-3-(trifluoromethyl)-1-benzothiophen-2-yl]carbonyl}azetidin-3-yl)-4-(1,3-thiazol-4-ylcarbonyl)piperazine], the pIC50 in experiment [1] is 6.90. Besides, the pKd on mutant MGL (setting [3]) is 7.55.

In experiment [1], `NC(=O)c1cc(-n2ccc3cc(C(=O)N4CC(N5CCN(C(=O)c6nccs6)CC5)C4)ccc32)ccc1F` [Cpd 1418, 2-fluoro-5-[5-({3-[4-(1,3-thiazol-2-ylcarbonyl)piperazin-1-yl]azetidin-1-yl}carbonyl)-1H-indol-1-yl]benzamide] showed a negative-log IC50 (pIC50) of 7.80. Moreover, the pKd at mutant MGL (setting [3]) was 7.27.

`O=C(c1ccc2c(ccn2-c2ccc(F)cc2)c1)N1CC(N2CCN(C(=O)c3ccc(Cl)o3)CC2)C1` [Cpd 1425]: in experiment [1], the pIC50 is 8.05. For the same compound, the Kd at mutant MGL (ThermoFluor, compound concentration measured by qNMR, read-out: MGL mutant ThermoFluor qKd (μM) (using qNMR conc.)) was 0.019 µM.

`O=C(c1ccccc1)N1CCN(C2CN(C(=O)c3sc4cc(C(F)(F)F)ccc4c3C3CC3)C2)CC1` [Cpd 515] gave a pIC50 in experiment [1] of 6.34. At mutant MGL (setting [4]), the pKd is 7.96.

As to `O=C(c1ccc2nc(C(F)(F)F)cc(Cl)c2c1)N1CC(N2CCN(C(=O)c3nccs3)CC2)C1` [Cpd 779], the pIC50 in experiment [1] was 6.03. Moreover, the pKd on mutant MGL (setting [3]) is 7.00.

The compound `O=C(c1ccc[nH]1)N1CC(N2CCN(C(=O)c3cc4cc(C(F)(F)F)ccc4s3)CC2)C1` [Cpd 722, 1-[1-(1H-Pyrrol-2-ylcarbonyl)azetidin-3-yl]-4-{[5-(trifluoromethyl)-1-benzothiophen-2-yl]carbonyl}piperazine] gave a pIC50 in experiment [1] of 6.74. For the same compound, the pKd at mutant MGL (setting [3]) is 7.09.

Turning to `Cc1cc(C(=O)N2CC(N3CCN(C(=O)c4nccs4)CC3)C2)c(C)n1CC(F)(F)F` [Cpd 788], the pIC50 in experiment [1] is 5.91. In addition, on mutant MGL (setting [2]), the pKd is 5.70.

The pIC50 is the negative decadic logarithm of the IC50, by convention in mol/L. Low values mean a large IC50, high ones a small IC50.
